Test systems include OVCAR-3; SR; LOX IMVI; 786-0; UACC-62; SN12C; SF-268; HCT-116; PC-3; EKVX; MOLT-4; HCT-15; SF-539; NCI/ADR-RES; HOP-92; M14; DU-145; SK-MEL-2; RPMI-8226; HL-60.
Holding throughout (experiment): NCI anticancer screen, dose series, 48 h

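Where inhibition never reached the appropriate level, the endpoint shown equals the highest concentration tested. Otherwise, values were interpolated linearly from a five-concentration, 48-hour dose response in 96-well plates. At the GI50, growth is halved.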 Active and inactive are the calls of the source. No stated cut-off is given here; in the data, active = GI50 up to about 1.1 µM and inactive = higher.

The values below come from ChEMBL document CHEMBL1201862, “PubChem BioAssay data set” (2004).

Regarding `c1ccc2c(Nc3ncco3)cccc2c1`, the GI50 was > 10 µM (inactive) with OVCAR-3; 0.001 µM (active) in the experiment on SR; > 10 µM (inactive) in the experiment with LOX IMVI; > 10 µM (inactive) with 786-0; > 10 µM (inactive) with UACC-62; > 10 µM (inactive) in the experiment on SN12C. For the same molecule, the GI50 in the experiment with SF-268 is > 10 µM (inactive); in the experiment with HCT-116, > 10 µM (inactive); in the experiment on PC-3, > 10 µM (inactive); in the experiment on EKVX, > 10 µM (inactive); with MOLT-4, > 10 µM (inactive); in the experiment with HCT-15 it was more than 10 µM. The GI50 with SF-539, in the experiment with NCI/ADR-RES, in the experiment with HOP-92, with M14 and in the experiment on DU-145 was > 10 µM (inactive) throughout.
For `COc1cc2c3c(n(C)c(=O)c2cc1OC)-c1cc2c(cc1/C3=C\CCCI)OCO2`, the GI50 with OVCAR-3 is > 61.1 µM (inactive); with SK-MEL-2 it was > 100 µM (inactive); in the experiment with RPMI-8226, 3.92 µM (inactive); in the experiment with HL-60, > 47.1 µM (inactive); in the experiment on SR, 0.239 µM (active); in the experiment on LOX IMVI it was 8.3 µM (inactive). The GI50 was 5.32 µM (inactive) with 786-0; 4.49 µM (inactive) with UACC-62; 8.75 µM (inactive) with SN12C; 0.776 µM (active) in the experiment with SF-268; 1.47 µM (inactive) with HCT-116; > 53.5 µM (inactive) in the experiment with PC-3. Besides, the GI50 in the experiment on EKVX is 30.1 µM (inactive); in the experiment with MOLT-4, 0.238 µM (active); with HCT-15, 2.56 µM; in the experiment with SF-539, 3.94 µM (inactive); with NCI/ADR-RES, 18.1 µM (inactive); in the experiment with M14 it was 2.61 µM (inactive). Besides, in the experiment on DU-145, the GI50 was 1.17 µM (inactive).
Turning to `O=C1c2ccccc2C(=O)N1n1c(Cc2ccccc2)n[nH]c1=O`, the GI50 with OVCAR-3, with SK-MEL-2, in the experiment with SR, with LOX IMVI, with 786-0 and with UACC-62 was > 100 µM (inactive) throughout. For the same molecule, the GI50 in the experiment with SN12C was > 100 µM (inactive); in the experiment on HCT-116 it was > 100 µM (inactive); in the experiment with PC-3, > 100 µM (inactive); in the experiment with EKVX it was > 100 µM (inactive); in the experiment with MOLT-4, > 100 µM (inactive); in the experiment on HCT-15, more than 100 µM. Further, the GI50 in the experiment with SF-539, with NCI/ADR-RES, with HOP-92, in the experiment on M14 and in the experiment with DU-145 was > 100 µM (inactive) throughout.
As for `NC(=O)C(=CNC(=S)Nc1ccc(S(=O)(=O)Nc2ccccn2)cc1)C(N)=O`, the GI50 in the experiment on OVCAR-3 was > 100 µM (inactive); in the experiment on SK-MEL-2 it was > 100 µM (inactive); in the experiment on RPMI-8226, > 100 µM (inactive); in the experiment with SR, 41.5 µM (inactive); in the experiment with LOX IMVI, > 93.1 µM (inactive); in the experiment on 786-0, > 100 µM (inactive). Further, the GI50 in the experiment with UACC-62 is > 100 µM (inactive); in the experiment on SN12C, > 100 µM (inactive); in the experiment with SF-268, > 100 µM (inactive); with HCT-116 it was 46.7 µM (inactive); in the experiment on PC-3 it was > 100 µM (inactive); with EKVX, > 100 µM (inactive). Also, the GI50 with MOLT-4 was 1.52 µM (inactive); in the experiment with HCT-15 it was more than 78 µM; in the experiment on SF-539, > 100 µM (inactive); in the experiment on NCI/ADR-RES, 55.3 µM (inactive); in the experiment on HOP-92, > 100 µM (inactive); in the experiment on M14, > 100 µM (inactive). For the same molecule, the GI50 with DU-145 was > 100 µM (inactive).
Consider `O=[N+]([O-])/C(C(Cl)=C(Cl)Cl)=C(\N1CCCCC1)n1cncn1`, for which the GI50 in the experiment on OVCAR-3 is 16 µM (inactive); with SK-MEL-2, 18 µM (inactive); in the experiment with RPMI-8226, 19.1 µM (inactive); in the experiment on SR it was 3.99 µM (inactive); in the experiment with LOX IMVI, 15.1 µM (inactive); in the experiment with 786-0 it was 20.4 µM (inactive). Besides, the GI50 was 15.2 µM (inactive) with UACC-62; 17.5 µM (inactive) in the experiment on SN12C; 12.9 µM (inactive) with SF-268; 22.2 µM (inactive) in the experiment with HCT-116; 16.4 µM (inactive) with PC-3; 15.8 µM (inactive) in the experiment with EKVX. Also, the GI50 is > 24.2 µM (inactive) with MOLT-4; 16 µM in the experiment with HCT-15; 17.1 µM (inactive) with SF-539; 20.1 µM (inactive) in the experiment with NCI/ADR-RES; 17.2 µM (inactive) in the experiment with M14; 16.6 µM (inactive) in the experiment with DU-145.
Take `O=C1CC(C(OCc2ccccc2)C(OCc2ccccc2)C(COCc2ccccc2)OCc2ccccc2)CC(=O)N1` (configuration not stated): the GI50 in the experiment with RPMI-8226 is > 75 µM (inactive); with HL-60 it was > 100 µM (inactive); in the experiment on SR it was > 75 µM (inactive); in the experiment with LOX IMVI, > 75 µM (inactive); with 786-0 it was > 75 µM (inactive); in the experiment with SN12C, > 75 µM (inactive). The GI50 with SF-268 was > 75 µM (inactive); with HCT-116 it was > 75 µM (inactive); in the experiment with PC-3 it was > 75 µM (inactive); in the experiment on EKVX, > 100 µM (inactive); in the experiment on HCT-15 it was more than 75 µM; with SF-539 it was > 100 µM (inactive). Further, the GI50 in the experiment with NCI/ADR-RES, in the experiment with M14 and in the experiment on DU-145 was > 75 µM (inactive) each time.
Regarding `O=C1CC(=O)NC(NN2C(=O)/C(=C/c3ccc(Cl)cc3)N=C2c2ccccc2)=N1`, the GI50 is 15.9 µM (inactive) with OVCAR-3; 15.5 µM (inactive) in the experiment on SK-MEL-2; 11.3 µM (inactive) with RPMI-8226; 4.71 µM (inactive) with SR; 17 µM (inactive) in the experiment on 786-0; 12.5 µM (inactive) with UACC-62. Besides, the GI50 in the experiment on SN12C was 16.8 µM (inactive); with SF-268 it was 14.1 µM (inactive); in the experiment with HCT-116, 15.8 µM (inactive); with PC-3 it was 14 µM (inactive); in the experiment with MOLT-4, 4.73 µM (inactive); with HCT-15, 15 µM. The GI50 is 16.8 µM (inactive) in the experiment with SF-539; 14.9 µM (inactive) in the experiment on NCI/ADR-RES; 12.4 µM (inactive) in the experiment with HOP-92; 14.5 µM (inactive) in the experiment with M14; 30.1 µM (inactive) in the experiment with DU-145.
As to `CCCCSC1=N/C(=C\c2ccccc2O)C(Cl)=N1`, the GI50 in the experiment on OVCAR-3, with SK-MEL-2, with RPMI-8226, with HL-60, in the experiment with LOX IMVI and in the experiment with 786-0 was > 100 µM (inactive) in each case. The GI50 in the experiment with UACC-62, in the experiment with SN12C, in the experiment with SF-268, in the experiment on HCT-116, in the experiment with PC-3 and with EKVX was > 100 µM (inactive) each time. Besides, the GI50 in the experiment with MOLT-4 was > 100 µM (inactive); in the experiment with HCT-15, more than 100 µM; in the experiment on SF-539 it was > 100 µM (inactive); in the experiment with NCI/ADR-RES, > 100 µM (inactive); with HOP-92 it was > 100 µM (inactive); in the experiment with M14 it was > 100 µM (inactive). In the experiment with DU-145, the GI50 is > 100 µM (inactive).
Consider `Cc1c(S(=O)(=O)N/C(=N\O)Nc2ccc(Cl)c(Cl)c2)sc2ccc(Cl)cc12`, for which the GI50 with OVCAR-3 is 14.5 µM (inactive); with SK-MEL-2, 18.9 µM (inactive); with RPMI-8226 it was 34.7 µM (inactive); in the experiment on HL-60, 26.7 µM (inactive); with LOX IMVI it was 20.7 µM (inactive); in the experiment on 786-0 it was 19.7 µM (inactive). Moreover, the GI50 in the experiment with UACC-62 is 17.7 µM (inactive); in the experiment with SN12C it was 18.7 µM (inactive); with SF-268 it was 24.8 µM (inactive); with HCT-116 it was 17.8 µM (inactive); in the experiment with PC-3 it was 18.6 µM (inactive); in the experiment on EKVX it was 12.9 µM (inactive). For the same molecule, the GI50 in the experiment with MOLT-4 was 34.1 µM (inactive); in the experiment with HCT-15, 17.1 µM; in the experiment on SF-539 it was 23 µM (inactive); in the experiment on NCI/ADR-RES, 18.7 µM (inactive); with HOP-92 it was 22.2 µM (inactive); in the experiment with M14, 21.5 µM (inactive). Besides, the GI50 with DU-145 was 18.8 µM (inactive).
As for `CC(C)(C)n1nc(C2CC2)cc1NC(=O)Nc1ccc(Cl)cc1`, the GI50 in the experiment with OVCAR-3, in the experiment on SK-MEL-2, with RPMI-8226, with HL-60, in the experiment on LOX IMVI and with 786-0 was > 100 µM (inactive) throughout. Further, the GI50 with UACC-62, with SN12C, in the experiment with SF-268, in the experiment with HCT-116, in the experiment with PC-3 and with EKVX was > 100 µM (inactive) in each case. In addition, the GI50 with MOLT-4 is > 100 µM (inactive); in the experiment with HCT-15, more than 100 µM; in the experiment with SF-539, > 100 µM (inactive); with NCI/ADR-RES, > 100 µM (inactive); in the experiment with HOP-92 it was > 100 µM (inactive); in the experiment on M14, > 100 µM (inactive). In the experiment with DU-145, the GI50 is > 100 µM (inactive).
As to `CC(=O)OCC(OC(C)=O)C(OC(C)=O)C(OC(C)=O)C(C=NN(C(C)=O)S(=O)(=O)c1ccc(/C=C2\NC(=O)N(C)C2=O)cc1)OC(C)=O` (configuration not stated), the GI50 in the experiment on OVCAR-3 is 29.7 µM (inactive); in the experiment on SK-MEL-2 it was 20.4 µM (inactive); with RPMI-8226, 18.5 µM (inactive); in the experiment on SR it was 11.8 µM (inactive); in the experiment on LOX IMVI, 11.9 µM (inactive); with 786-0, 23.7 µM (inactive). For the same molecule, the GI50 is 10.3 µM (inactive) with UACC-62; 30.6 µM (inactive) in the experiment with SN12C; 26.2 µM (inactive) in the experiment with SF-268; 17.1 µM (inactive) in the experiment on HCT-116; 27.9 µM (inactive) in the experiment with PC-3; 23.2 µM (inactive) in the experiment on EKVX. Moreover, the GI50 in the experiment on MOLT-4 was 10.6 µM (inactive); in the experiment on HCT-15, 21.3 µM; in the experiment on SF-539, 26.7 µM (inactive); with NCI/ADR-RES, 73.3 µM (inactive); in the experiment on M14, 42.7 µM (inactive); in the experiment on DU-145, 29.5 µM (inactive).
